Results: ChEMBL document CHEMBL1201862, “PubChem BioAssay data set” (2004)
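Test compounds were applied to cells in 96-well plates for 48 hours at 5 doses. GI50 marks 50% less growth.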 The source made the active and inactive calls. No stated cut-off is given here; in the data, active = GI50 up to about 1.1 µM and inactive = higher.

Experiments:
Test in all cases: growth of human tumour cells (NCI), 48 h
EKVX = system: EKVX
DU-145 = system: DU-145
CAKI-1 = system: CAKI-1
HCT-116 = system: HCT-116
Hs-578T = system: Hs-578T
OVCAR-8 = system: OVCAR-8
UACC-62 = system: UACC-62
SK-MEL-5 = system: SK-MEL-5
A549 = system: A549
A498 = system: A498
K562 = system: K562
SK-MEL-28 = system: SK-MEL-28
786-0 = system: 786-0
PC-3 = system: PC-3
KM12 = system: KM12
SW-620 = system: SW-620
MOLT-4 = system: MOLT-4
HOP-62 = system: HOP-62
OVCAR-3 = system: OVCAR-3
NCI-H522 = system: NCI-H522
ACHN = system: ACHN
MDA-MB-435 = system: MDA-MB-435
IGROV-1 = system: IGROV-1
LOX IMVI = system: LOX IMVI
OVCAR-4 = system: OVCAR-4
SNB-19 = system: SNB-19
SN12C = system: SN12C
MDA-MB-231 = system: MDA-MB-231
UO-31 = system: UO-31
HT-29 = system: HT-29
Malme-3M = system: Malme-3M
NCI-H460 = system: NCI-H460
OVCAR-5 = system: OVCAR-5
HOP-92 = system: HOP-92
UACC-257 = system: UACC-257
MDA-N = system: MDA-N
SF-539 = system: SF-539
BT-549 = system: BT-549
COLO 205 = system: COLO 205
SF-268 = system: SF-268
HL-60 = system: HL-60
M14 = system: M14
HCC 2998 = system: HCC 2998
MCF7 = system: MCF7
SK-MEL-2 = system: SK-MEL-2
NCI/ADR-RES = system: NCI/ADR-RES
SF-295 = system: SF-295
SK-OV-3 = system: SK-OV-3
U-251 = system: U-251
NCI-H23 = system: NCI-H23
CCRF-CEM = system: CCRF-CEM
T47D = system: T47D
HCT-15 = system: HCT-15
TK-10 = system: TK-10
RXF 393 = system: RXF 393
SNB-75 = system: SNB-75
SR = system: SR
NCI-H226 = system: NCI-H226
RPMI-8226 = system: RPMI-8226

COP(=O)(OC)c1ccc(NCc2cc(O)ccc2O)cc1
GI50 (EKVX): 23.1 µM (inactive)
GI50 (DU-145): 36.8 µM (inactive)
GI50 (CAKI-1): 19.2 µM (inactive)
GI50 (HCT-116): 24.8 µM (inactive)
GI50 (Hs-578T): 24.8 µM (inactive)
GI50 (OVCAR-8): 26.8 µM (inactive)
GI50 (UACC-62): 19.5 µM (inactive)
GI50 (SK-MEL-5): 22.1 µM (inactive)
GI50 (A549): > 100 µM (inactive)
GI50 (A498): 92.7 µM (inactive)
GI50 (K562): 30.5 µM (inactive)
GI50 (SK-MEL-28): 30.2 µM (inactive)
GI50 (786-0): 25.2 µM (inactive)
GI50 (PC-3): > 60.4 µM (inactive)
GI50 (KM12): 19.9 µM (inactive)
GI50 (SW-620): 42 µM (inactive)
GI50 (MOLT-4): 30.2 µM (inactive)
GI50 (HOP-62): 35.8 µM (inactive)
GI50 (OVCAR-3): 6.34 µM (inactive)
GI50 (NCI-H522): 17.3 µM (inactive)
GI50 (ACHN): 18.3 µM (inactive)
GI50 (MDA-MB-435): 26.8 µM (inactive)
GI50 (IGROV-1): 30.3 µM (inactive)
GI50 (LOX IMVI): 26.3 µM (inactive)
GI50 (OVCAR-4): 27 µM (inactive)
GI50 (SNB-19): 37.8 µM (inactive)
GI50 (SN12C): 30.3 µM (inactive)
GI50 (MDA-MB-231): 26.9 µM (inactive)
GI50 (UO-31): 15.5 µM (inactive)
GI50 (HT-29): 24.8 µM (inactive)
GI50 (Malme-3M): 18.9 µM (inactive)
GI50 (NCI-H460): 22.1 µM (inactive)
GI50 (OVCAR-5): 23.9 µM (inactive)
GI50 (HOP-92): 21.4 µM (inactive)
GI50 (UACC-257): 22.2 µM (inactive)
GI50 (MDA-N): 26.3 µM (inactive)
GI50 (SF-539): 21.2 µM (inactive)
GI50 (BT-549): 17.9 µM (inactive)
GI50 (COLO 205): 27.7 µM (inactive)
GI50 (SF-268): 17.6 µM (inactive)
GI50 (HL-60): 21.4 µM (inactive)
GI50 (M14): 13.8 µM (inactive)
GI50 (HCC 2998): 23 µM (inactive)
GI50 (MCF7): 28.8 µM (inactive)
GI50 (SK-MEL-2): 46.6 µM (inactive)
GI50 (NCI/ADR-RES): 31 µM (inactive)
GI50 (SF-295): 17.3 µM (inactive)
GI50 (SK-OV-3): > 100 µM (inactive)
GI50 (U-251): 30.6 µM (inactive)
GI50 (NCI-H23): 34.1 µM (inactive)
GI50 (CCRF-CEM): 18.8 µM (inactive)
GI50 (T47D): 28.8 µM (inactive)
GI50 (HCT-15): 21.3 µM
GI50 (TK-10): 23.4 µM (inactive)
GI50 (RXF 393): 25.3 µM (inactive)
GI50 (SNB-75): 29.5 µM (inactive)
GI50 (SR): 14.3 µM (inactive)
GI50 (NCI-H226): 38.9 µM (inactive)
GI50 (RPMI-8226): 19.5 µM (inactive)

O=C(c1ccccc1)c1ccc2nc3n(c2c1)C(c1c(Cl)cccc1Cl)SC3 (stereo not drawn)
GI50 (EKVX): 4.63 µM (inactive)
GI50 (DU-145): 13.5 µM (inactive)
GI50 (CAKI-1): 3.44 µM (inactive)
GI50 (HCT-116): 3.26 µM (inactive)
GI50 (Hs-578T): 3.67 µM (inactive)
GI50 (OVCAR-8): 6.65 µM (inactive)
GI50 (UACC-62): 4.06 µM (inactive)
GI50 (SK-MEL-5): 3.24 µM (inactive)
GI50 (A549): 4.49 µM (inactive)
GI50 (A498): 15.7 µM (inactive)
GI50 (K562): 3.12 µM (inactive)
GI50 (SK-MEL-28): 10.4 µM (inactive)
GI50 (786-0): 3.86 µM (inactive)
GI50 (PC-3): 5.41 µM (inactive)
GI50 (KM12): 2.87 µM (inactive)
GI50 (SW-620): 3.53 µM (inactive)
GI50 (MOLT-4): 2.72 µM (inactive)
GI50 (HOP-62): 6.37 µM (inactive)
GI50 (OVCAR-3): 4.68 µM (inactive)
GI50 (NCI-H522): 1.74 µM (inactive)
GI50 (ACHN): 7.69 µM (inactive)
GI50 (MDA-MB-435): 1.77 µM (inactive)
GI50 (IGROV-1): 4.48 µM (inactive)
GI50 (LOX IMVI): 3.85 µM (inactive)
GI50 (OVCAR-4): 7.45 µM (inactive)
GI50 (SNB-19): 3.85 µM (inactive)
GI50 (SN12C): 7.64 µM (inactive)
GI50 (MDA-MB-231): 18.4 µM (inactive)
GI50 (UO-31): 3.17 µM (inactive)
GI50 (HT-29): 6.31 µM (inactive)
GI50 (Malme-3M): 2.81 µM (inactive)
GI50 (NCI-H460): 3.66 µM (inactive)
GI50 (OVCAR-5): 3.95 µM (inactive)
GI50 (HOP-92): 5.08 µM (inactive)
GI50 (UACC-257): 13.6 µM (inactive)
GI50 (MDA-N): 1.63 µM (inactive)
GI50 (SF-539): 5.68 µM (inactive)
GI50 (BT-549): 3.54 µM (inactive)
GI50 (COLO 205): 4.88 µM (inactive)
GI50 (SF-268): 4.79 µM (inactive)
GI50 (HL-60): 2.36 µM (inactive)
GI50 (M14): 3.3 µM (inactive)
GI50 (HCC 2998): 7.05 µM (inactive)
GI50 (MCF7): 4.09 µM (inactive)
GI50 (SK-MEL-2): 8.02 µM (inactive)
GI50 (NCI/ADR-RES): 2.13 µM (inactive)
GI50 (SF-295): 3.37 µM (inactive)
GI50 (SK-OV-3): 4.31 µM (inactive)
GI50 (U-251): 5.58 µM (inactive)
GI50 (NCI-H23): 5.66 µM (inactive)
GI50 (CCRF-CEM): 1.27 µM (inactive)
GI50 (T47D): 3.08 µM (inactive)
GI50 (HCT-15): 3.35 µM
GI50 (TK-10): 25.2 µM (inactive)
GI50 (RXF 393): 5.94 µM (inactive)
GI50 (SNB-75): 2.34 µM (inactive)
GI50 (SR): 1.43 µM (inactive)
GI50 (NCI-H226): 31.2 µM (inactive)
GI50 (RPMI-8226): 3.51 µM (inactive)
